Results from patent US9980993B2, “Nutraceutical supplement with Lactobacillus rhamnosus” (NWO Stem Cure, LLC, priority 2014, dated 2018).

System: human MSC
Assay: Anti-oxidative stress testing, LIVE/DEAD Viability/Cytotoxicity Assay with H2O2
Type: cell-based
Settings: MSCs, 12 hours of oxidative stress (100 μM H2O2)
Description: The percentage of live and dead cells was determined simultaneously by measuring intracellular esterase activity and plasma membrane integrity using the LIVE/DEAD® Viability/Cytotoxicity Assay Kit (Life Technologies). Briefly, human MSC were plated on 24 wells plate. On, next day cells were treated with ingredients and 100 μM H2O2 for 12 hr. The supernatant media from each well was collected into microtubes and cells were washed with 1×PBS, followed by collection of washes into respective microtubes to collect any floating or dead cells. The cells attached to the bottom of the plate were incubated in 1×PBS in a 37° C. incubator. The microtubes were centrifuged at 2000 rpm for 3 min to get the cell pellet. After removing supernatant, cell pellet was resuspended into 1×PBS containing 2 μM calcein AM and 4 μM ethidium/homodimer. […] The cells were then imaged under 10× objective using fluorescence microscope (Olympus IX71).
The percentage of live and dead cells was determined simultaneously by measuring intracellular esterase activity and plasma membrane integrity using the LIVE/DEAD® Viability/Cytotoxicity Assay Kit (Life Technologies). […] The cells were then imaged under 10× objective using fluorescence microscope (Olympus IX71).
Fluorescence microscope images showing a percentage of live and dead MSCs in 24 wells after 12 hours of treatment with oxidative stress (100 μM H2O2) were examined. […]

With `C=C1CC[C@H](O)C/C1=C/C=C1\CCC[C@]2(C)[C@@H]([C@H](C)CCCC(C)C)CC[C@@H]12` [Vitamin D alone (0.3 mg), cholecalciferol] as the compound, how does the “Cell Survival Rate Measured by Fluorescence Microscope (%)” value read?
Its value is 2.5%.
